Legend:
Experiment in all cases: relative viability (nuclei count vs DMSO), 5 days (fraction); higher = more cells survive
Doxorubicin + Pictilisib = compound: COc1cccc2c1C(=O)c1c(O)c3c(c(O)c1C2=O)C[C@@](O)(C(=O)CO)C[C@@H]3O[C@H]1C[C@H](N)[C@H](O)[C@H](C)O1 [Doxorubicin] + CS(=O)(=O)N1CCN(Cc2cc3nc(-c4cccc5[nH]ncc45)nc(N4CCOCC4)c3s2)CC1 [Pictilisib] (partner 1 µM)
Summary of the method: (§1)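 The day after seeding in 1536-well plates, lung cancer cell lines were treated by pin tool with a single drug, or with a fixed anchor-drug dose together with five library-drug doses (not always all listed) in √10 steps. After 5 days, a combined fix-and-stain solution (final 0.05% Triton X-100, 1% formaldehyde, 1 ug/ml Hoechst) was added. Nuclei counted on 4× images gave relative viability as treated counts over vehicle counts, reported as the median of duplicate plates.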

Doxorubicin + Navitoclax = compound: COc1cccc2c1C(=O)c1c(O)c3c(c(O)c1C2=O)C[C@@](O)(C(=O)CO)C[C@@H]3O[C@H]1C[C@H](N)[C@H](O)[C@H](C)O1 [Doxorubicin] + CC1(C)CCC(c2ccc(Cl)cc2)=C(CN2CCN(c3ccc(C(=O)NS(=O)(=O)c4ccc(N[C@H](CCN5CCOCC5)CSc5ccccc5)c(S(=O)(=O)C(F)(F)F)c4)cc3)CC2)C1 [Navitoclax] (partner 0.5 µM)
Summary of the method: as §1

Doxorubicin + OSI-027 = compound: COc1cccc2c1C(=O)c1c(O)c3c(c(O)c1C2=O)C[C@@](O)(C(=O)CO)C[C@@H]3O[C@H]1C[C@H](N)[C@H](O)[C@H](C)O1 [Doxorubicin] + COc1cccc2cc(-c3nc([C@H]4CC[C@H](C(=O)O)CC4)n4ncnc(N)c34)[nH]c12 [OSI-027] (partner 0.5 µM)
Summary of the method: as §1

BAY61-3606 + OSI-027 = compound: COC1=C(C=C(C=C1)C2=CC3=NC=CN3C(=N2)NC4=C(C=CC=N4)C(=O)N)OC [BAY61-3606] + COc1cccc2cc(-c3nc([C@H]4CC[C@H](C(=O)O)CC4)n4ncnc(N)c34)[nH]c12 [OSI-027] (partner 0.5 µM)
Summary of the method: as §1

Cell Line UMC-11 has a relative viability (Doxorubicin + Pictilisib; first compound 0.001 µM) of 0.849, a relative viability (Doxorubicin + Pictilisib; first compound 0.003162 µM) of 0.927 and a relative viability (Doxorubicin + Pictilisib; first compound 0.01 µM) of 0.769. The relative viability (Doxorubicin + Pictilisib; first compound 0.03162 µM) was 0.445, the relative viability (Doxorubicin + Pictilisib; first compound 0.1 µM) was 0.369 and the relative viability (Doxorubicin + Navitoclax; first compound 0.001 µM) was 0.414. For the same cell line, the relative viability (Doxorubicin + Navitoclax; first compound 0.003162 µM) was 0.306, the relative viability (Doxorubicin + Navitoclax; first compound 0.01 µM) was 0.323 and the relative viability (Doxorubicin + Navitoclax; first compound 0.03162 µM) was 0.229. It also gave a relative viability (Doxorubicin + Navitoclax; first compound 0.1 µM) of 0.366, a relative viability (Doxorubicin + OSI-027; first compound 0.001 µM) of 0.514 and a relative viability (Doxorubicin + OSI-027; first compound 0.003162 µM) of 0.425. It also gave a relative viability (Doxorubicin + OSI-027; first compound 0.01 µM) of 0.482, a relative viability (Doxorubicin + OSI-027; first compound 0.03162 µM) of 0.436 and a relative viability (Doxorubicin + OSI-027; first compound 0.1 µM) of 0.368. For the same cell line, the relative viability (BAY61-3606 + OSI-027; first compound 0.02 µM) was 0.544, the relative viability (BAY61-3606 + OSI-027; first compound 0.06325 µM) was 0.467 and the relative viability (BAY61-3606 + OSI-027; first compound 0.2 µM) was 0.476. The relative viability (BAY61-3606 + OSI-027; first compound 0.6325 µM) was 0.461 and the relative viability (BAY61-3606 + OSI-027; first compound 2 µM) was 0.375.

Reference: the supplement of paper PMC10307832
